Experimental data taken from US20210369853A1, “TARGETED PROTEASE DEGRADATION PLATFORM” (EUBULUS BIOTHERAPEUTICS INC., priority 2018, published 2021).
Read-outs that look alike come from different tables or passages of the source.

Tests used:
[1] = tested on: Human cervical adenocarcinoma cells Hela; assay: Cell proliferation experiment (Alarm blue, 72 h, EC50); format: cell-based
How it was run: (§1)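 Log-phase cells were seeded in 96-well plates, then exposed to test compound in a 5-fold dilution series, in duplicate, for 72 h. Fluorescence read by Alarm blue. EC50 fitted with a four-parameter (Min, Max, Slope) equation.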

[2] = tested on: Human Monocytic Leukemia MV4-11; assay: as above; format: cell-based
How it was run: as §1

[3] = Homo sapiens, MV4-11, MV4;11 cells

Row | Compound | EC50 ([1]; Homo sapiens) | EC50 [2, 3] | EC50 [1] | EC50 ([2]; MV4;11 cells)
1 | CC[C@@H]1c2nncn2-c2cnc(Nc3ccc(C(=O)NCCCC(=O)Nc4cccc5c4CN(C4CCC(=O)NC4=O)C5=O)cc3OC)nc2N1C1CCCC1 (some centres unmarked) [UB-180521] | > 1000 nM | > 1000 nM |  | 
2 | CC[C@@H]1c2nncn2-c2cnc(Nc3ccc(C(=O)NCCOCCOCCOCCC(=O)N[C@H](C(=O)N4C[C@H](O)C[C@H]4C(=O)NCc4ccc(-c5scnc5C)cc4)C(C)(C)C)cc3OC)nc2N1C1CCCC1 [UB-180522] | > 1000 nM | 100 to 1000 nM |  | 
3 | CC[C@@H]1c2nncn2-c2cnc(Nc3ccc(C(=O)NCCCCOCC(=O)Nc4cccc5c4CN(C4CCC(=O)NC4=O)C5=O)cc3OC)nc2N1C1CCCC1 (some centres unmarked) [UB-180524] | > 1000 nM | 10 to 100 nM |  | 
4 | CC[C@@H]1c2c(C#N)ncn2-c2cnc(Nc3ccc(C(=O)NCCCC(=O)Nc4cccc5c4CN(C4CCC(=O)NC4=O)C5=O)cc3OC)nc2N1C1CCCC1 (some centres unmarked) [UB-180537] | > 1000 nM | 100 to 1000 nM |  | 
5 | CC[C@@H]1c2c(C#N)ncn2-c2cnc(Nc3ccc(C(=O)NCCOCCOCCC(=O)Nc4cccc5c4CN(C4CCC(=O)NC4=O)C5=O)cc3OC)nc2N1C1CCCC1 (some centres unmarked) [UB-180538] | > 1000 nM | > 1000 nM |  | 
6 | CC[C@@H]1c2nncn2-c2cnc(Nc3ccc(C(=O)NCCCC(=O)N[C@H](C(=O)N4C[C@H](O)C[C@H]4C(=O)NCc4ccc(-c5scnc5C)cc4)C(C)(C)C)cc3OC)nc2N1C1CCCC1 [UB-180539] | > 1000 nM | 10 to 100 nM |  | 
7 | CC[C@@H]1c2nncn2-c2cnc(Nc3ccc(C(=O)NCCOCC(=O)N[C@H](C(=O)N4C[C@H](O)C[C@H]4C(=O)NCc4ccc(-c5scnc5C)cc4)C(C)(C)C)cc3OC)nc2N1C1CCCC1 [UB-180540] | > 1000 nM | > 1000 nM |  | 
8 | CC[C@@H]1c2nncn2-c2cnc(Nc3ccc(C(=O)NCCCOCC(=O)N[C@H](C(=O)N4C[C@H](O)C[C@H]4C(=O)NCc4ccc(-c5scnc5C)cc4)C(C)(C)C)cc3OC)nc2N1C1CCCC1 [UB-180541] | > 1000 nM | 100 to 1000 nM |  | 
9 | CC[C@@H]1c2c(C#N)ncn2-c2cnc(Nc3ccc(C(=O)NCCCOCC(=O)N[C@H](C(=O)N4C[C@H](O)C[C@H]4C(=O)NCc4ccc(-c5scnc5C)cc4)C(C)(C)C)cc3OC)nc2N1C1CCCC1 [UB-180542] | > 1000 nM | 100 to 1000 nM |  | 
10 | CC[C@@H]1c2c(C#N)ncn2-c2cnc(Nc3ccc(C(=O)NCCCC(=O)N[C@H](C(=O)N4C[C@H](O)C[C@H]4C(=O)NCc4ccc(-c5scnc5C)cc4)C(C)(C)C)cc3OC)nc2N1C1CCCC1 [UB-180543] | > 1000 nM | 10 to 100 nM |  | 
11 | CC[C@@H]1c2c(C#N)ncn2-c2cnc(Nc3ccc(C(=O)NCCOCC(=O)N[C@H](C(=O)N4C[C@H](O)C[C@H]4C(=O)NCc4ccc(-c5scnc5C)cc4)C(C)(C)C)cc3OC)nc2N1C1CCCC1 [UB-180544] | > 1000 nM | 10 to 100 nM |  | 
12 | CC[C@@H]1c2c(C#N)ncn2-c2cnc(Nc3ccc(C(=O)NCCOCCOCCOCC(=O)Nc4cccc5c4CN(C4CCC(=O)NC4=O)C5=O)cc3OC)nc2N1C1CCCC1 (some centres unmarked) [UB-180545] | > 1000 nM | 100 to 1000 nM |  | 
13 | CC[C@@H]1c2nncn2-c2cnc(Nc3ccc(C(=O)NCCOCCOCCOCC(=O)Nc4cccc5c4CN(C4CCC(=O)NC4=O)C5=O)cc3OC)nc2N1C1CCCC1 (some centres unmarked) [UB-180546] | > 1000 nM | > 1000 nM |  | 
14 | CC[C@@H]1c2nncn2-c2cnc(Nc3ccc(C(=O)NCCOCCOCCC(=O)Nc4cccc5c4CN(C4CCC(=O)NC4=O)C5=O)cc3OC)nc2N1C1CCCC1 (some centres unmarked) [UB-180547] | > 1000 nM | > 1000 nM |  | 
15 | CC[C@@H]1c2c(C#N)ncn2-c2cnc(Nc3ccc(C(=O)NCCOCCOCCOCCC(=O)Nc4cccc5c4CN(C4CCC(=O)NC4=O)C5=O)cc3OC)nc2N1C1CCCC1 (some centres unmarked) [UB-180548] | > 1000 nM | > 1000 nM |  | 
16 | CC[C@@H]1c2nncn2-c2cnc(Nc3ccc(C(=O)NCCOCCOCCOCCC(=O)Nc4cccc5c4CN(C4CCC(=O)NC4=O)C5=O)cc3OC)nc2N1C1CCCC1 (some centres unmarked) [UB-180549] | > 1000 nM | > 1000 nM |  | 
17 | CC[C@@H]1c2nncn2-c2cnc(Nc3ccc(C(=O)NCCOCCOCCC(=O)N[C@H](C(=O)N4C[C@H](O)C[C@H]4C(=O)NCc4ccc(-c5scnc5C)cc4)C(C)(C)C)cc3OC)nc2N1C1CCCC1 [UB-180550] | > 1000 nM | > 1000 nM |  | 
18 | CC[C@@H]1c2c(C#N)ncn2-c2cnc(Nc3ccc(C(=O)NCCOCCOCCOCCOCCC(=O)Nc4cccc5c4CN(C4CCC(=O)NC4=O)C5=O)cc3OC)nc2N1C1CCCC1 (some centres unmarked) [UB-180551] | > 1000 nM | > 1000 nM |  | 
19 | CC[C@@H]1c2c(C#N)ncn2-c2cnc(Nc3ccc(C(=O)NCCOCCOCCOCCOCCC(=O)N[C@H](C(=O)N4C[C@H](O)C[C@H]4C(=O)NCc4ccc(-c5scnc5C)cc4)C(C)(C)C)cc3OC)nc2N1C1CCCC1 [UB-180552] | > 1000 nM | 100 to 1000 nM |  | 
20 | CC[C@@H]1c2nncn2-c2cnc(Nc3ccc(C(=O)NCCOCCOCCOCCOCCC(=O)N[C@H](C(=O)N4C[C@H](O)C[C@H]4C(=O)NCc4ccc(-c5scnc5C)cc4)C(C)(C)C)cc3OC)nc2N1C1CCCC1 [UB-180553] | > 1000 nM | 100 to 1000 nM |  | 
21 | CC[C@@H]1c2nncn2-c2cnc(Nc3ccc(C(=O)NCCCCOCC(=O)N[C@H](C(=O)N4C[C@H](O)C[C@H]4C(=O)NCc4ccc(-c5scnc5C)cc4)C(C)(C)C)cc3OC)nc2N1C1CCCC1 [UB-180555] | > 1000 nM | 10 to 100 nM |  | 
22 | CC[C@@H]1c2nncn2-c2cnc(Nc3ccc(C(=O)NCCOCCOCC(=O)Nc4cccc5c4CN(C4CCC(=O)NC4=O)C5=O)cc3OC)nc2N1C1CCCC1 (some centres unmarked) [UB-180556] | > 1000 nM | > 1000 nM |  | 
23 | CC[C@@H]1c2c(C#N)ncn2-c2cnc(Nc3ccc(C(=O)NCCOCCOCC(=O)Nc4cccc5c4CN(C4CCC(=O)NC4=O)C5=O)cc3OC)nc2N1C1CCCC1 (some centres unmarked) [UB-180557] | > 1000 nM | 100 to 1000 nM |  | 
24 | CC[C@@H]1c2c(C#N)ncn2-c2cnc(Nc3ccc(C(=O)NCCOCCOCCOCCOCC(=O)Nc4cccc5c4CN(C4CCC(=O)NC4=O)C5=O)cc3OC)nc2N1C1CCCC1 (some centres unmarked) [UB-180560] | > 1000 nM | 100 to 1000 nM |  | 
25 | CC[C@@H]1c2nncn2-c2cnc(Nc3ccc(C(=O)NCCOCCOCCOCCOCC(=O)Nc4cccc5c4CN(C4CCC(=O)NC4=O)C5=O)cc3OC)nc2N1C1CCCC1 (some centres unmarked) [UB-180561] |  |  | > 1000 nM | > 1000 nM
26 | CC[C@@H]1c2nncn2-c2cnc(Nc3ccc(C(=O)NCCOCCOCCOCCOCCC(=O)Nc4cccc5c4CN(C4CCC(=O)NC4=O)C5=O)cc3OC)nc2N1C1CCCC1 (some centres unmarked) [UB-180562] | > 1000 nM | > 1000 nM |  | 
27 | CC[C@@H]1c2c(C#N)ncn2-c2cnc(Nc3ccc(C(=O)NCCOCCOCC(=O)N[C@H](C(=O)N4C[C@H](O)C[C@H]4C(=O)NCc4ccc(-c5scnc5C)cc4)C(C)(C)C)cc3OC)nc2N1C1CCCC1 [UB-180563] | > 1000 nM | 100 to 1000 nM |  | 
28 | CC[C@@H]1c2nncn2-c2cnc(Nc3ccc(C(=O)NCCOCCOCC(=O)N[C@H](C(=O)N4C[C@H](O)C[C@H]4C(=O)NCc4ccc(-c5scnc5C)cc4)C(C)(C)C)cc3OC)nc2N1C1CCCC1 [UB-180564] | > 1000 nM | 100 to 1000 nM |  | 
